According to patent US9707185B2, “Water-soluble nanoparticles containing water-insoluble compounds” (Board of Supervisors of Louisana State University And …, priority 2007, dated 2017):
Read-outs that look alike come from different tables or passages of the source.

Tests used:
[1] = cited from earlier work; for Comments: solubility: water / lipid solubility; for Comments: stability: light, heat, acid, oxidation, SO2, ascorbic acid
[2] = color photographs, dispersed in water
[3] = β-carotene solubility in organic solvents; format: physicochemical; settings: organic solvent or mixture

Compound | Comments: solubility [1] | Comments: stability ([1]; in presence of ascorbic acid) | further results
COc1cc(/C=C/C(=O)CC(=O)/C=C/c2ccc(O)c(OC)c2)ccc1O [Curcumin] | low water solubility |  | 
Chlorophyll | Liposoluble. Not allowed as a colorant in the U.S. |  | 
CC1=C[C@H](O)CC(C)(C)[C@H]1/C=C/C(C)=C/C=C/C(C)=C/C=C/C=C(C)/C=C/C=C(C)/C=C/C1=C(C)C[C@@H](O)CC1(C)C [Lutein] |  | Fades in the presence of ascorbic acid. | Comments: stability ([1]; to light): Poor stability to light, heat, acid, oxidation, and SO2.
CC1=C(/C=C/C(C)=C/C=C/C(C)=C/C=C/C=C(C)/C=C/C=C(C)/C=C/C2=C(C)CCCC2(C)C)C(C)(C)CCC1 [β-carotene] |  |  | color and distribution in water [2]: non-uniform color and distribution; solubility [3]: ≤ 20 mg/mL
Cc1c(C(=O)O)c(O)cc2c1C(=O)c1c(O)c([C@@H]3O[C@H](CO)[C@@H](O)[C@H](O)[C@H]3O)c(O)c(O)c1C2=O [Carmine, carminic acid, carminic acid] | Water soluble | Fades in the presence of ascorbic acid or SO2 | Comments: stability ([1]; to light, heat and acid): Good stability to light, heat, and acid
Capsanthin/capsorubin |  |  | Comments: stability [1]: Fair stability to light and heat
